Columns and labels:
[1] = Real time FT-IR curing performance at 405 nm in UViCure S105/TMPTA (1:1); conditions: LED @405 nm (110 mW/cm^2), 20 μm thickness, laminated
Experimental: The curing performance of individual products prepared above was assessed using real time FT-IR measurement. The photoinitiators were dissolved either in neat trimethylolpropane triacrylate (TMPTA; available as SR351 from Sartomer) or in a 1:1 (w/w) mixture of TMPTA and UViCure S105 as indicated, applied onto the FT-IR measurement plate, laminated to prevent oxygen inhibition, and irradiated with the indicated LED light source. For the epoxy component, the polymerization rate and final reactive group conversion were determined by monitoring the change of the relevant infrared band near 900 cm^−1 corresponding to an epoxide ring. For the acrylate component, the C═C stretch band near 1625 cm^−1 was used.

[2] = Solubility in propylene carbonate at ambient temperature; assay type: physicochemical; conditions: 20-25° C.
Experimental: Solubility of selected sulfonium salts in propylene carbonate at ambient temperature (20-25° C.) was determined.

[3] = Belt curing performance (thumb-twist depth cure) in UViCure S105E resin; conditions: 24 μm film, under air, PI 2 wt %
Experimental: The photoinitiators were dissolved either in neat UViCure S105E resin or a hybrid acrylate/epoxy resin (prepared by mixing 60 wt parts UViCure S105E, 15 wt parts UViCure S130 and 25 wt parts SR492; all product are available from Sartomer). Formulations were prepared by combining all materials in the given proportions and then stirring at 30-40° C. until the samples were fully homogeneous; the formulations were then allowed to cool to room temperature. For all experiments, the formulations were cured on Leneta Form 3N-31 gloss finish paper at 6 μm and 24 μm film thickness using a belt-cure instrument; the films were prepared using a K-bar. All films were then cured under an LED lamp at a given belt speed. ‘Depth cure’ for each formulation was assessed using the ‘thumb-twist’ test (where no visible mark is made when a thumb is pressed down firmly onto the coating with a twisting motion), and from the belt speed; the calculated cure speed (in m/min) is given.

[4] = UV Vis spectra measurement; assay type: physicochemical; conditions: order 5>1>2 (comp.) ~4 (comp.); 10 ppm in acetonitrile
Excerpt: UV-Vis spectrum of each sample was taken with a Shimadzu UV1800 spectrophotometer using a 1.0 cm path of cuvette quartz cell in accordance with ASTM E169-04, and scanning the spectrum over the wavelength range of 450 to 200 nm.

[5] = Real time FT-IR curing performance in UViCure S105 at 365 and 385 nm; conditions: for Polymerization rate Rp/[M0]*100 / Final conversion: UViCure S105, 20 μm thickness, under air; for Final conversion: epoxide band; for cure speed compared with photoinitiators known from prior art such as Omnicat BL 550: LED lamp conditions, Example 2
Experimental: The curing performance of individual products prepared above was assessed using real time FT-IR measurement. The photoinitiators were dissolved in cycloaliphatic epoxy resin UViCure S105 (available from Sartomer) at the indicated wt % loading, applied onto the FT-IR measurement plate and irradiated with the indicated LED light source. The polymerization rate and final reactive group conversion were determined by monitoring the change of the relevant infrared band near 900 cm^−1 corresponding to an epoxide ring during irradiation. The molar extinction coefficients for the photoinitiator products (ε, expressed in M^−1 cm^−1) were determined in acetonitrile at 10^-3 M or 10^-5 M concentration.

[6] = LED 365 nm, 100% intensity (=70.1 mJ/cm^2), belt speed 40 m/min
[7] = LED 395 nm, 40 m/min, 100% intensity (=164.5 mJ/cm^2)
[8] = LED @365 nm (120 W/cm^2), PI loading 1 wt % (Omnicat BL 550 4 wt %; Speedcure 938/CPTX 1/0.5 wt %)

## CCc1cc(CC)c2sc3ccc([S+](c4ccc(C)cc4)c4ccc(C(=O)c5ccccc5)cc4)cc3c(=O)c2c1 (stereo not drawn) [Photoinitiator 4, (4-benzoylphenyl)(5,7-diethyl-9-oxo-9H-thioxanthen-2-yl)(4-methylphenyl)sulfonium Hexafluorophosphate]
[1]
  Acrylate Final conversion: 83%
  Acrylate Polymerization rate Rp/[M0]*100: 12.20 s⁻¹
  Epoxy Final conversion: 45%
  Epoxy Polymerization rate Rp/[M0]*100: 6.29 s⁻¹
[2]
  Solubility in propylene carbonate: >47 wt %
[3]; [6]
  Cure speed in UViCure S105E resin: 3.7 m/min
[3]; [7]
  Cure speed in UViCure S105E resin: 5.2 m/min
[4]
  UV absorption at 405 nm: much higher than Omnicat 550 and SC 992S
[5]; [8]
  Polymerization rate Rp/[M0]*100: 5.74 s⁻¹
[5]; LED @365 nm (120 W/cm^2)
  Final conversion: 25%
[5]; LED @385 nm (160 W/cm^2)
  Polymerization rate Rp/[M0]*100: 4.80 s⁻¹
  Final conversion: 25%
[5]
  cure speed compared with photoinitiators known from prior art such as Omnicat BL 550: higher cure speed

## CCCOc1ccc(Cl)c2c(=O)c3cc(-[s+]4c5ccccc5c(=O)c5c(Cl)ccc(OCCC)c54)ccc3sc12 (stereo not drawn) [Photoinitiator 5, 1-chloro-10-(8-chloro-9-oxo-5-propoxy-9H-thioxanthen-2-yl)-9-oxo-4-propoxy-9H-thioxanthen-10-ium Hexafluorophosphate]
[1]
  Acrylate Final conversion: 70%
  Acrylate Polymerization rate Rp/[M0]*100: 6.03 s⁻¹
  Epoxy Final conversion: 44%
  Epoxy Polymerization rate Rp/[M0]*100: 3.87 s⁻¹
[2]
  Solubility in propylene carbonate: 42 wt %
[3]; [6]
  Cure speed in UViCure S105E resin: 13.3 m/min
[3]; [7]
  Cure speed in UViCure S105E resin: 13.3 m/min
[4]
  UV absorption at 405 nm: much higher than Omnicat 550 and SC 992S
[5]; [8]
  Polymerization rate Rp/[M0]*100: 6.57 s⁻¹
[5]; LED @365 nm (120 W/cm^2)
  Final conversion: 36%
[5]; LED @385 nm (160 W/cm^2)
  Polymerization rate Rp/[M0]*100: 5.90 s⁻¹
  Final conversion: 39%
[5]
  cure speed compared with photoinitiators known from prior art such as Omnicat BL 550: higher cure speed

## CC(C)c1ccc2sc3ccc(-[s+]4c5ccccc5c(=O)c5cc(C(C)C)ccc54)cc3c(=O)c2c1 (stereo not drawn) [Photoinitiator 1, 9-oxo-10-[9-oxo-7-(propan-2-yl)-9H-thioxanthen-2-yl]-2-(propan-2-yl)-9H-thioxanthen-10-ium hexafluorophosphate]
[1]
  Acrylate Final conversion: 83%
  Acrylate Polymerization rate Rp/[M0]*100: 10.57 s⁻¹
  Epoxy Final conversion: 47%
  Epoxy Polymerization rate Rp/[M0]*100: 8.12 s⁻¹
[2]
  Solubility in propylene carbonate: >50 wt %
[3]; [6]
  Cure speed in UViCure S105E resin: 12.2 m/min
[3]; [7]
  Cure speed in UViCure S105E resin: 20.0 m/min
[4]
  UV absorption at 405 nm: much higher than Omnicat 550 and SC 992S
[5]; [8]
  Polymerization rate Rp/[M0]*100: 8.93 s⁻¹
[5]; LED @365 nm (120 W/cm^2)
  Final conversion: 35%
[5]; LED @385 nm (160 W/cm^2)
  Polymerization rate Rp/[M0]*100: 8.89 s⁻¹
  Final conversion: 36%

## Cc1ccc([S+](c2ccc(C(=O)c3ccccc3)cc2)c2ccc3sc4ccc(C(C)C)cc4c(=O)c3c2)cc1 (stereo not drawn) [Photoinitiator 2, (4-benzoylphenyl)(4-methylphenyl)[9-oxo-7-(propan-2-yl)-9H-thioxanthen-2-yl]sulfonium Hexafluorophosphate]
[1]
  Acrylate Final conversion: 81%
  Acrylate Polymerization rate Rp/[M0]*100: 11.56 s⁻¹
  Epoxy Final conversion: 45%
  Epoxy Polymerization rate Rp/[M0]*100: 6.12 s⁻¹
[2]
  Solubility in propylene carbonate: >48 wt %
[3]; [6]
  Cure speed in UViCure S105E resin: 4.6 m/min
[3]; [7]
  Cure speed in UViCure S105E resin: 10.0 m/min
[4]
  UV absorption at 405 nm: much higher than Omnicat 550 and SC 992S
[5]; [8]
  Polymerization rate Rp/[M0]*100: 4.11 s⁻¹
[5]; LED @365 nm (120 W/cm^2)
  Final conversion: 41%
[5]; LED @385 nm (160 W/cm^2)
  Polymerization rate Rp/[M0]*100: 5.96 s⁻¹
  Final conversion: 41%
[5]
  cure speed compared with photoinitiators known from prior art such as Omnicat BL 550: higher cure speed
